These results are taken from ChEMBL document CHEMBL2074554, “Expression of the apical conjugate export pump, Mrp2, in the polarized hepatoma cell line, WIF-B” (Hepatology, 1998).

In series [1] the target is ABCC2 (MRP2; ATP-binding cassette sub-family C member 2) (Rattus norvegicus, UniProt Q63120). Nature of the series: TP_TRANSPORTER: inhibition of Fluo-3 secretion into apical vacuoles (Fluo-3: 1 uM, PSC 833: 50 uM) in WIF-B cells. The series is classed as functional, cell-based, WIF-B cell. The note with it: probe Fluo-3 (1 uM).
Series [2] addresses ATP-binding cassette sub-family C member 2 (Rattus norvegicus, UniProt Q63120). Nature of the series: TP_TRANSPORTER: inhibition of Fluo-3 uptake (Fluo-3: 4.4 uM, PSC 833: 10 uM) in bile canalicular membrane vesicles from Wistar rat. The series is classed as functional, cell membranes, Bile canalicular membrane vesicle.
Substrate in series [3]: Cc1ccc(N(CC(=O)O)CC(=O)O)c(OCCOc2cc(-c3c4cc(Cl)c(=O)cc-4oc4cc(O)c(Cl)cc34)ccc2N(CC(=O)O)CC(=O)O)c1
Nature of the series: TP_TRANSPORTER: uptake in bile canalicular membrane vesicles from Wistar/TR- rat. The series is classed as functional, cell membranes, Bile canalicular membrane vesicle.

In the case of `C/C=C/C[C@@H](C)C(=O)[C@H]1C(=O)N[C@@H](C(C)C)C(=O)N(C)CC(=O)N(C)[C@@H](CC(C)C)C(=O)N[C@@H](C(C)C)C(=O)N(C)[C@@H](CC(C)C)C(=O)N[C@@H](C)C(=O)N[C@H](C)C(=O)N(C)[C@@H](CC(C)C)C(=O)N(C)[C@@H](CC(C)C)C(=O)N(C)[C@@H](C(C)C)C(=O)N1C` [VALSPODAR], testing at 50 µM in series [1] gave an inhibition of 50%. In series [2], the Activity result was “is not an inhibitor [-]”.

B1: ATP-binding cassette sub-family C member 2 (Rattus norvegicus) (protein)
chain: MDKFCNSTFWDLSLLESPEADLPLCFEQTVLVWIPLGFLWLLAPWQLYSVYRSRTKRSSITKFYLAKQVFVVFLLILAAIDLSLALTEDTGQATVPPVRYTNPILYLCTWLLVLAVQHSRQWCVRKNSWFLSLFWILSVLCGVFQFQTLIRALLKDSKSNMAYSYLFFVSYGFQIVLLILTAFSGPSDSTQTPSVTASFLSSITFSWYDRTVLKGYKHPLTLEDVWDIDEGFKTRSVTSKFEAAMTKDLQKARQAFQRRLQKSQRKPEATLHGLNKKQSQSQDVLVLEEAKKKSEKTTKDYPKSWLIKSLFKTFHVVILKSFILKLIHDLLVFLNPQLLKLLIGFVKSSNSYVWFGYICAILMFAVTLIQSFCLQSYFQHCFVLGMCVRTTVMSSIYKKALTLSNLARKQYTIGETVNLMSVDSQKLMDATNYMQLVWSSVIQITLSIFFLWRELGPSILAGVGVMVLLIPVNGVLATKIRNIQVQNMKNKDKRLKIMNEILSGIKILKYFAWEPSFQEQVQGIRKKELKNLLRFGQLQSLLIFILQITPILVSVVTFSVYVLVDSANVLNAEKAFTSITLFNILRFPLSMLPMVTSSILQASVSVDRLERYLGGDDLDTSAIRRVSNFDKAVKFSEASFTWDPDLEATIQDVNLDIKPGQLVAVVGTVGSGKSSLVSAMLGEMENVHGHITIQGSTAYVPQQSWIQNGTIKDNILFGSEYNEKKYQQVLKACALLPDLEILPGGDMAEIGEKGINLSGGQKQRVSLARAAYQDADIYILDDPLSAVDAHVGKHIFNKVVGPNGLLAGKTRIFVTHGIHFLPQVDEIVVLGKGTILEKGSYRDLLDKKGVFARNWKTFMKHSGPEGEATVNNDSEAEDDDDGLIPTMEEIPEDAASLAMRRENSLRRTLSRSSRSSSRRGKSLKNSLKIKNVNVLKEKEKEVEGQKLIKKEFVETGKVKFSIYLKYLQAVGWWSILFIILFYGLNNVAFIGSNLWLSAWTSDSDNLNGTNNSSSHRDMRIGVFGALGLAQGICLLISTLWSIYACRNASKALHGQLLTNILRAPMRFFDTTPTGRIVNRFSGDISTVDDLLPQTLRSWMMCFFGIAGTLVMICMATPVFAIIIIPLSILYISVQVFYVATSRQLRRLDSVTKSPIYSHFSETVTGLPIIRAFEHQQRFLAWNEKQIDINQKCVFSWITSNRWLAIRLELVGNLVVFCSALLLVIYRKTLTGDVVGFVLSNALNITQTLNWLVRMTSEAETNIVAVERISEYINVENEAPWVTDKRPPADWPRHGEIQFNNYQVRYRPELDLVLKGITCNIKSGEKVGVVGRTGAGKSSLTNCLFRILESAGGQIIIDGIDVASIGLHDLRERLTIIPQDPILFSGSLRMNLDPFNKYSDEEVWRALELAHLRSFVSGLQLGLLSEVTEGGDNLSIGQRQLLCLGRAVLRKSKILVLDEATAAVDLETDSLIQTTIRKEFSQCTVITIAHRLHTIMDSDKIMVLDNGKIVEYGSPEELLSNRGSFYLMAKEAGIENVNHTEL
As for B1, the Km (commonly the substrate concentration at which the rate is half of its maximum) in series [3] worked out at 3.7 µM.
